Test results: paper PMC11661381, “Covalent-fragment screening identifies selective inhibitors of multiple Staphylococcus aureus serine hydrolases important for growth and biofilm formation” (Research Square, 2024)

Key:
[1] = test system: Fph enzymes in live S. aureus cells (USA300); assay: Competition of FP-alkyne labeling in live S. aureus cells; assay type: cell-based, Staphylococcus aureus; settings: 100 μM compound, live S. aureus cells
Method: (§1) One colony of each of S. aureus wild-type and transposon mutants fphB::Tn, fphE::Tn and fphH::Tn picked from growth on a Tryptic soya agar plate were inoculated in 5 mL of Tryptic soya broth (TSB). The overnight bacterial cultures were spun down at 5,000 g for 10 min and pellet was collected. The pellets were washed twice in 1X PBS buffer and resuspended in the same buffer. Cells were first preincubated with the indicated concentrations of inhibitors for 2hr at 37°C. The cells were washed twice with 1X PBS buffer. The resuspended pellets were incubated with Fluorophosphonate-alkyne (FP-alkyne) for 30 min at 37°C. Cells were washed again twice with 1X PBS buffer and resuspended in with 1X PBS and 0.1% Triton–X and lysed by beat beating at 4°C. Next, lysed cells (20 μL) were mixed with 2.16 μL of freshly prepared click mix (0.5 μL of 50 mM CuSO4 in H2O, 1.16 μL of 100 mM BTTAA in DMSO, and 0.5 μL of N3-Cy5 in DMSO) and 1.16 μL of 300 mM sodium ascorbate solution in H2O and incubated at 37 °C for 30 min. Next step, 20 μL of 4X SDS loading buffer was added in each sample and boiled at 100 °C for 10 min. The processed samples were allowed to cool and analyzed by SDS-PAGE (12%) running at 120 V in an electrophoresis chamber. Cy5 fluorescence was imaged using the Cy5 channel on a Typhoon 9410 Imager (Amersham Biosciences).

[2] = target: T1, Fph enzymes in live S. aureus cells (USA300) (Staphylococcus aureus, UniProt Q2FDS6); assay: as above; assay type: cell-based; settings: live cells, doses 5–100 μM, 120 min preincubation
T1 construct: endogenous in cells; host or cells: live S. aureus USA300 (LAC) wild-type cells
Method: as §1

rFphH = target: T2, rFphH (Staphylococcus aureus, UniProt A0A0H2XJL0); assay: FP-Cy5 active site labeling of recombinant protein, rFphH; assay type: binding; settings: recombinant protein
T2 construct: otherwise full-length FphE (Uniprot ID Q2FDS6) and FphH (A0A0H2XJL0) proteins; His6 (3C-cleavable, pETNKI-his-3C-LIC vector) (N); made in house; E. coli is inferred from the pET28a-type vector, IPTG induction and LB/kanamycin
T2 sequence (A0A0H2XJL0 1-246): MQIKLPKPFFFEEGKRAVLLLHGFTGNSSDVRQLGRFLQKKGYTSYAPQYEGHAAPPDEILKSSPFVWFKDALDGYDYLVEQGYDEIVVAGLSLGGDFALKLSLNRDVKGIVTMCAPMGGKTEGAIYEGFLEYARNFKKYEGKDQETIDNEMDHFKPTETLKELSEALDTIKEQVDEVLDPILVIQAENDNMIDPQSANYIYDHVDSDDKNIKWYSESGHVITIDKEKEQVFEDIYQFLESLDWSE
Method: (§2) For activity-based protein labeling experiments, 500 nM of rFphB, rFphE and rFphH in 1X PBS and 0.1% Triton–X were preincubated with different concentrations of inhibitors or DMSO for 2hr at room temperature, followed by adding 300 nM of fluorophosphonate (FP) alkyne and incubated for 30 min at room temperature. Next, 20 μL of the reaction volume were mixed with 2.16 μL of freshly prepared click mix (0.5 μL of 50 mM CuSO4 in H2O, 1.16 μL of 100 mM BTTAA in DMSO, and 0.5 μL of N3-Cy5 in DMSO) and 1.16 μL of 300 mM sodium ascorbate solution in H2O. Samples were incubated at 37°C for 30 min, boiled in SDS loading buffer and analyzed by SDS–PAGE. Cy5 fluorescence was imaged using the Cy5 channel on a Typhoon 9410 Imager (Amersham Biosciences).

Pseudomonas aeruginosa = assay: Bacterial growth inhibition assay, P. aeruginosa; assay type: cell-based
Method: Bacteria were streaked from glycerol stocks onto agar plates and grown overnight at 37°C. A single colony was inoculated in either Tryptic Soy Broth (TSB; Sigma-Aldrich, St. Louis, MO; used for most species) or Bacto Brain Heart Infusion (BHI; Becton, Dickinson, and Company, Franklin Lakes, NJ; used for L. monocytogenes and S. pyogenes) and grown at 37°C shaking until mid-exponential phase (OD600 = 0.5), then diluted 1:10 in cation-adjusted Mueller Hinton Broth (MHB2, Millipore Sigma, Bedford, MA; used for most species) or BHI (for L. monocytogenes and S. pyogenes). 15 μl of this dilution was added to 135 μl of MHB2 or BHI in a flat-bottom clear 96-well plate for a starting inoculum of ~ 5 × 10^5 CFU/ml.
For bacterial growth inhibition assay, wild-type S. aureus and transposon mutants (fphB::Tn, fphE::Tn and fphH::Tn) were grown with compounds at final concentrations ranging from 1–100 μM and compared to growth in media with an equivalent percentage of DMSO. […] All growth curves were repeated at least twice and analyzed in GraphPad Prism 10.0 software. […] The cultures were incubated overnight at 37°C, 5% CO2 before their optical density was read. The EC50 of the antibiotics against the bacteria in the presence or absence of N34 were determined by fitting the normalized data into a four-parameter logistic model in GraphPad Prism 10.0 software.

rFphE = target: T3, rFphE (Staphylococcus aureus, UniProt Q2FDS6); assay: FP-Cy5 active site labeling competition of recombinant protein, rFphE; assay type: binding
T3 construct: otherwise full-length FphE (Uniprot ID Q2FDS6) and FphH (A0A0H2XJL0) proteins; His6 (3C-cleavable, pETNKI-his-3C-LIC vector) (N); made in house; E. coli is inferred from the pET28a-type vector, IPTG induction and LB/kanamycin
T3 sequence (Q2FDS6 1-276): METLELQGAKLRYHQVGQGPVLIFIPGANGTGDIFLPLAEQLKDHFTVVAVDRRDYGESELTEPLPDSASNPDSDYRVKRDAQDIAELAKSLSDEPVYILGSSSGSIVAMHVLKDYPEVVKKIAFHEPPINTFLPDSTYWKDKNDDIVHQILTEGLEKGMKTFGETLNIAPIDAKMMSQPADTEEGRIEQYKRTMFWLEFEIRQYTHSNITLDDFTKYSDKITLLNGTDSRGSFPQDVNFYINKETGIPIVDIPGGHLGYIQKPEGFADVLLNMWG
Method: as §2

## OB(O)c1csc2ccccc12 [Z27, Benzo[b]thiophen-3-ylboronic acid]
[1]
  competition of FP labeling in live cells (in words): only blocked FP labeling of FphE in live cells
[2]
  concentration completely inhibiting FphE labeling: ≥ 50 µM
rFphH
  concentration inhibiting FP-Cy5 labeling of rFphH: > 50 µM
Pseudomonas aeruginosa
  growth defect (in words): no significant growth defect
rFphE
  concentration inhibiting FP-Cy5 labeling of rFphE: > 50 µM
